This is an account of results in US10023592B2, “Bromodomain inhibitors” (Celgene Quanticel Research, Inc., priority 2013, dated 2018).

Structures are written as SMILES.

For experiment [1], the system named is Raji, human Burkitts lymphoma cells. The experiment can be described thus: Cell-MTS proliferation assay, Raji. It counts as cell-based. The settings on record: Homo sapiens, 168 hr. An outline of the steps:
(§1)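 Seven-day colorimetric MTS assay; compound at 11 concentrations from 100 μM down to 2.0 nM final, added a day after plating. IC50 from OD490 normalised to DMSO controls.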
Background: Tetrazolium dyes change colour on reduction, which living cells bring about.

Experiment [2] relates to NCI-H460, human non-small cell lung cancer cells. Nature of the experiment: Cell-MTS proliferation assay, NCI-H460. The class given is cell-based. The settings on record: Homo sapiens, 168 hr. In a few lines:
as §1

Experiment [3] concerns HL-60, human proleukemia cells. The experiment can be described thus: Cell-MTS proliferation assay, HL-60. It counts as cell-based. The settings on record: Homo sapiens, 168 hr. In a few lines:
as §1

The next experiment deals with BRD4(BD1) (Homo sapiens (Human), UniProt O60885). Nature of the experiment: In vitro enzyme inhibition assay (BRD4 AlphaScreen). It counts as binding. In a few lines: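 AlphaScreen proximity readout, using streptavidin donor and Ni-chelate acceptor beads at 5 μg/mL final, monitors biotin-H4 tetraacetylated peptide interaction with purified His-tagged BRD4.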
(In general: Bead proximity is the source of the signal in Alpha formats.)

[4] abbreviates: Raji, Cell-MTS, class symbols A/B/C.
Setting [5] is: NCI-H460, Cell-MTS, class symbols A/B/C.
[6] abbreviates: HL-60, Cell-MTS, class symbols A/B/C.
Setting [7] is: Cell-MTS proliferation, Raji cells.
Where [8] appears, read: Cell-MTS proliferation, NCI-H460 cells.
[9] abbreviates: Cell-MTS proliferation, HL-60 cells.
Where [10] appears, read: in vitro enzyme inhibition assay.
Where [11] appears, read: NCI-H460, Cell-MTS proliferation.

`Cc1cc(=O)n(C)cc1-c1cc(NS(C)(=O)=O)ccc1Oc1ccc(F)cc1F` [Example 101, N-[4-(2,4-difluorophenoxy)-3-(1,4-dimethyl-6-oxopyridin-3-yl)phenyl]methanesulfonamide]: the IC50 (as a rule, the point on the concentration scale where inhibition reaches its midpoint) was less than 500 nM in experiment [1] (setting [4]), greater than 5 µM in experiment [2] (setting [5]), less than 500 nM in experiment [3] (setting [6]) and less than 500 nM against BRD4(BD1) (class symbols A/B/C).
In the case of `CN(C)c1cc(-c2cc(S(C)(=O)=O)ccc2NCC2CC2)cn(C)c1=O` [Example 438, 5-[2-(cyclopropylmethylamino)-5-methylsulfonylphenyl]-3-(dimethylamino)-1-methylpyridin-2-one], the IC50 is less than 500 nM in experiment [1] (setting [7]), greater than 5 µM in experiment [2] (setting [8]), less than 500 nM in experiment [3] (setting [9]) and less than 500 nM on BRD4(BD1) (setting [10]).
As to `CCS(=O)(=O)c1ccc(OC2CCC(F)(F)CC2)c(-c2cn(C)c(=O)c3cncn23)c1` [Example 373, 5-[2-(4,4-difluorocyclohexyl)oxy-5-ethylsulfonylphenyl]-7-methylimidazo[1,5-a]pyrazin-8-one], the IC50 in experiment [1] (setting [7]) is 500 to 5000 nM; in experiment [2] (setting [8]) it was greater than 5 µM; in experiment [3] (setting [9]), less than 500 nM; on BRD4(BD1) (setting [10]), less than 500 nM.
Turning to `Cn1cc(-c2cc(S(C)(=O)=O)ccc2NCC2CC2)c2ccc(F)cc2c1=O` [Example 196, 4-[2-(cyclopropylmethylamino)-5-methylsulfonylphenyl]-7-fluoro-2-methylisoquinolin-1-one], the IC50 in experiment [1] (Raji, Cell-MTS proliferation) is less than 500 nM; in experiment [2] (setting [11]), greater than 5 µM; in experiment [3] (HL-60, Cell-MTS proliferation), less than 500 nM; against BRD4(BD1) (setting [10]), less than 500 nM.
`Cc1cc(-c2cc(O[C@H](C)c3ccccc3)cc(S(C)(=O)=O)c2)cn(C)c1=O` [Example 341, 1,3-dimethyl-5-[3-methylsulfonyl-5-[(1R)-1-phenylethoxy]phenyl]pyridin-2-one]: the IC50 was less than 500 nM in experiment [1] (Raji, Cell-MTS proliferation); greater than 5 µM in experiment [2] (setting [11]); less than 500 nM in experiment [3] (HL-60, Cell-MTS proliferation); less than 500 nM at BRD4(BD1) (setting [10]).
Turning to `CCS(=O)(=O)c1ccc(OCC2CC2)c(-c2cn(C)c(=O)c3ccc(F)cc23)c1` [Example 174, 4-[2-(cyclopropylmethoxy)-5-ethylsulfonylphenyl]-6-fluoro-2-methylisoquinolin-1-one], the IC50 in experiment [1] (Raji, Cell-MTS proliferation) is less than 500 nM; in experiment [2] (setting [11]) it was greater than 5 µM; in experiment [3] (HL-60, Cell-MTS proliferation) it was less than 500 nM; against BRD4(BD1) (setting [10]) it was less than 500 nM.
Consider `CCCCc1cnc(NS(=O)(=O)CC)nc1-c1cc(C)c(=O)n(C)c1` [Example 310, N-[5-butyl-4-(1,5-dimethyl-6-oxopyridin-3-yl)pyrimidin-2-yl] ethanesulfonamide], for which the IC50 is less than 500 nM in experiment [1] (Raji, Cell-MTS proliferation); greater than 5 µM in experiment [2] (setting [11]); less than 500 nM in experiment [3] (HL-60, Cell-MTS proliferation); less than 500 nM on BRD4(BD1) (setting [10]).
For `Cn1cc(-c2cn(CS(C)(=O)=O)c(=O)cc2Oc2ccc(F)cc2F)c2ccccc2c1=O` [Example 387, 4-[4-(2,4-difluorophenoxy)-1-(methylsulfonylmethyl)-6-oxopyridin-3-yl]-2-methylisoquinolin-1-one], the IC50 is less than 500 nM in experiment [1] (setting [7]), greater than 5 µM in experiment [2] (setting [8]), less than 500 nM in experiment [3] (setting [9]) and less than 500 nM on BRD4(BD1) (setting [10]).
With `COCC1COc2cc(S(C)(=O)=O)cc(-c3cc(C)c(=O)n(C)c3)c2O1` (stereo not drawn) [Example 498, 5-[3-(methoxymethyl)-7-methylsulfonyl-2,3-dihydro-1,4-benzodioxin-5-yl]-1,3-dimethylpyridin-2-one], the IC50 in experiment [1] (setting [7]) was greater than 5000 nM; in experiment [2] (setting [8]), greater than 5 µM; in experiment [3] (setting [9]), 500 to 5000 nM; on BRD4(BD1) (setting [10]), less than 500 nM.
As to `CCS(=O)(=O)Nc1ccc(Oc2ccc(F)cc2F)c(-c2cn(C)c(=O)c3ccccc23)c1` [Example 93, N-[4-(2,4-difluorophenoxy)-3-(2-methyl-1-oxoisoquinolin-4-yl)phenyl]ethanesulfonamide], the IC50 is less than 500 nM in experiment [1] (setting [4]), greater than 5 µM in experiment [2] (setting [5]), less than 500 nM in experiment [3] (setting [6]) and less than 500 nM against BRD4(BD1) (class symbols A/B/C).
In the case of `CCS(=O)(=O)c1cccc(-c2cn(C)c(=O)c3cc(F)ccc23)c1` [Example 63, 4-(3-ethylsulfonylphenyl)-7-fluoro-2-methylisoquinolin-1-one], the IC50 in experiment [1] (setting [4]) is 500 to 5000 nM; in experiment [2] (setting [5]) it was greater than 5 µM; in experiment [3] (setting [6]) it was 500 to 5000 nM; against BRD4(BD1) (class symbols A/B/C), 500 to 5000 nM.
In the case of `CCS(=O)(=O)c1cnc(OCC2CC2)c(-c2cn(C)c(=O)c3ccccc23)c1` [Example 322, 4-[2-(cyclopropylmethoxy)-5-ethylsulfonylpyridin-3-yl]-2-methylisoquinolin-1-one], the IC50 in experiment [1] (Raji, Cell-MTS proliferation) was less than 500 nM; in experiment [2] (setting [11]) it was greater than 5 µM; in experiment [3] (HL-60, Cell-MTS proliferation), less than 500 nM; against BRD4(BD1) (setting [10]), less than 500 nM.
Regarding `CCS(=O)(=O)Nc1ccc(OC2CCCOC2)c(-c2cc(C)c(=O)n(C)c2)c1` (stereo not drawn) [Example 448, N-[3-(1,5-dimethyl-6-oxopyridin-3-yl)-4-(oxan-3-yloxy)phenyl]ethanesulfonamide], the IC50 is less than 500 nM in experiment [1] (setting [7]), greater than 5 µM in experiment [2] (setting [8]), less than 500 nM in experiment [3] (setting [9]) and less than 500 nM against BRD4(BD1) (setting [10]).
Take `Cn1cc(-c2cc(S(C)(=O)=O)ccc2OCC2CC2)n2cnnc2c1=O` [Example 235, 5-[2-(cyclopropylmethoxy)-5-methylsulfonylphenyl]-7-methyl-[1,2,4]triazolo[4,3-a]pyrazin-8-one]: the IC50 in experiment [1] (Raji, Cell-MTS proliferation) was greater than 5000 nM; in experiment [2] (setting [11]), greater than 5 µM; in experiment [3] (HL-60, Cell-MTS proliferation), greater than 5000 nM; on BRD4(BD1) (setting [10]), greater than 5000 nM.
On to `Cn1cc(-c2cc(S(C)(=O)=O)ccc2OCC2CC2)c2cc(Cl)oc2c1=O` [Example 260, 2-chloro-4-[2-(cyclopropylmethoxy)-5-methylsulfonylphenyl]-6-methylfuro[2,3-c]pyridin-7-one], for which the IC50 is less than 500 nM in experiment [1] (Raji, Cell-MTS proliferation); 0.5 to 5 µM in experiment [2] (setting [11]); less than 500 nM in experiment [3] (HL-60, Cell-MTS proliferation); less than 500 nM on BRD4(BD1) (setting [10]).
Consider `Cn1cc(-c2ccc3c(=O)n(C)cc(-c4nc(NS(C)(=O)=O)ncc4OCC4CC4)c3c2)cn1` [Example 154, N-[5-(cyclopropylmethoxy)-4-[2-methyl-6-(1-methylpyrazol-4-yl)-1-oxoisoquinolin-4-yl]pyrimidin-2-yl]methanesulfonamide], for which the IC50 in experiment [1] (Raji, Cell-MTS proliferation) is less than 500 nM; in experiment [2] (setting [11]), greater than 5 µM; in experiment [3] (HL-60, Cell-MTS proliferation), less than 500 nM; against BRD4(BD1) (setting [10]), less than 500 nM.
For the molecule `CCS(=O)(=O)Nc1ncc(Oc2ccc(F)cc2F)c(-c2cn(C)c(=O)c3ccccc23)n1` [Example 170, N-[5-(2,4-difluorophenoxy)-4-(2-methyl-1-oxoisoquinolin-4-yl)pyrimidin-2-yl]ethanesulfonamide], the IC50 in experiment [1] (Raji, Cell-MTS proliferation) was less than 500 nM; in experiment [2] (setting [11]) it was greater than 5 µM; in experiment [3] (HL-60, Cell-MTS proliferation), less than 500 nM; against BRD4(BD1) (setting [10]), less than 500 nM.
Turning to `CCS(=O)(=O)Nc1ccc(Oc2ccc(F)cc2F)c(-c2cc(C)c(=O)n(C)c2)c1` [Example 472, N-[4-(2,4-difluorophenoxy)-3-(1,5-dimethyl-6-oxopyridin-3-yl)phenyl]ethanesulfonamide], the IC50 was less than 500 nM in experiment [1] (setting [7]), greater than 5 µM in experiment [2] (setting [8]), less than 500 nM in experiment [3] (setting [9]) and less than 500 nM against BRD4(BD1) (setting [10]).
As for `Cc1cc(-c2cc(S(C)(=O)=O)ccc2OC2CCC(F)(F)CC2)cn(C)c1=O` [Example 415, 5-[2-(4,4-difluorocyclohexyl)oxy-5-methylsulfonylphenyl]-1,3-dimethylpyridin-2-one], the IC50 in experiment [1] (setting [7]) is less than 500 nM; in experiment [2] (setting [8]) it was greater than 5 µM; in experiment [3] (setting [9]) it was less than 500 nM; on BRD4(BD1) (setting [10]), less than 500 nM.
Consider `Cn1cc(-c2nc(NS(C)(=O)=O)ncc2OCC2CC2)c2ccc(F)cc2c1=O` [Example 158, N-[5-(cyclopropylmethoxy)-4-(7-fluoro-2-methyl-1-oxoisoquinolin-4-yl)pyrimidin-2-yl]methanesulfonamide], for which the IC50 in experiment [1] (Raji, Cell-MTS proliferation) was less than 500 nM; in experiment [2] (setting [11]) it was greater than 5 µM; in experiment [3] (HL-60, Cell-MTS proliferation) it was less than 500 nM; against BRD4(BD1) (setting [10]) it was less than 500 nM.
`Cn1cc(-c2cc(S(C)(=O)=O)cnc2OCC2CC2)c2ccccc2c1=O` [Example 321, 4-[2-(cyclopropylmethoxy)-5-methylsulfonylpyridin-3-yl]-2-methylisoquinolin-1-one]: the IC50 in experiment [1] (Raji, Cell-MTS proliferation) was less than 500 nM; in experiment [2] (setting [11]) it was greater than 5 µM; in experiment [3] (HL-60, Cell-MTS proliferation) it was less than 500 nM; at BRD4(BD1) (setting [10]) it was less than 500 nM.
Turning to `CCS(=O)(=O)Nc1cnc(OCC2CC2)c(-c2cn(C)c(=O)c3ccccc23)c1` [Example 320, N-[6-(cyclopropylmethoxy)-5-(2-methyl-1-oxoisoquinolin-4-yl)pyridin-3-yl]ethanesulfonamide], the IC50 was less than 500 nM in experiment [1] (Raji, Cell-MTS proliferation); greater than 5 µM in experiment [2] (setting [11]); less than 500 nM in experiment [3] (HL-60, Cell-MTS proliferation); less than 500 nM against BRD4(BD1) (setting [10]).
For `CCS(=O)(=O)c1ccc(OCC2CC2)c(-c2cn(C)c(=O)c3c2CCCC3)c1` [Example 219, 4-[2-(cyclopropylmethoxy)-5-ethylsulfonylphenyl]-2-methyl-5,6,7,8-tetrahydroisoquinolin-1-one], the IC50 in experiment [1] (Raji, Cell-MTS proliferation) was less than 500 nM; in experiment [2] (setting [11]) it was greater than 5 µM; in experiment [3] (HL-60, Cell-MTS proliferation) it was less than 500 nM; against BRD4(BD1) (setting [10]), less than 500 nM.
Regarding `Cn1cc(-c2nc(S(C)(=O)=O)ccc2OCC2CC2)c2ccoc2c1=O` [Example 259, 4-[3-(cyclopropylmethoxy)-6-methylsulfonylpyridin-2-yl]-6-methylfuro[2,3-c]pyridin-7-one], the IC50 in experiment [1] (Raji, Cell-MTS proliferation) was 500 to 5000 nM; in experiment [2] (setting [11]), greater than 5 µM; in experiment [3] (HL-60, Cell-MTS proliferation), less than 500 nM; against BRD4(BD1) (setting [10]), less than 500 nM.
